PubChem BioAssay (NCI)
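These data come from cells grown in 96-well plates and exposed to compound for 48 hours at five concentrations. GI50: concentration for 50% inhibition of growth. TGI denotes the concentration required for complete inhibition of growth.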

What was measured:
Experiment in all cases: NCI anticancer screen, dose series, 48 h
HOP-92 NSCLC = system: HOP-92 NSCLC
HL-60(TB) leukemia = system: HL-60(TB) leukemia
HCC-2998 colon = system: HCC-2998 colon
A498 renal = system: A498 renal
DU-145 prostate = system: DU-145 prostate
CAKI-1 renal = system: CAKI-1 renal
UACC-257 melanoma = system: UACC-257 melanoma
OVCAR-5 ovarian = system: OVCAR-5 ovarian
KM12 colon = system: KM12 colon
U251 CNS = system: U251 CNS
COLO 205 colon = system: COLO 205 colon
A549 NSCLC = system: A549 NSCLC
NCI-H460 lung = system: NCI-H460 lung
MALME-3M melanoma = system: MALME-3M melanoma
OVCAR-8 ovarian = system: OVCAR-8 ovarian
TK-10 renal = system: TK-10 renal
SNB-75 CNS = system: SNB-75 CNS
NCI-H522 lung = system: NCI-H522 lung
BT-549 breast = system: BT-549 breast
T-47D breast = system: T-47D breast
SK-MEL-28 melanoma = system: SK-MEL-28 melanoma
UACC-62 melanoma = system: UACC-62 melanoma
SW-620 colon = system: SW-620 colon
SK-MEL-2 melanoma = system: SK-MEL-2 melanoma
SNB-19 CNS = system: SNB-19 CNS
HCT-15 colon = system: HCT-15 colon
RXF 393 renal = system: RXF 393 renal
OVCAR-4 ovarian = system: OVCAR-4 ovarian
786-0 renal = system: 786-0 renal
SK-OV-3 ovarian = system: SK-OV-3 ovarian
MDA-MB-231 breast = system: MDA-MB-231 breast
SF-295 CNS = system: SF-295 CNS
HS 578T breast = system: HS 578T breast
UO-31 renal = system: UO-31 renal
MOLT-4 leukemia = system: MOLT-4 leukemia
EKVX NSCLC = system: EKVX NSCLC
PC-3 prostate = system: PC-3 prostate
CCRF-CEM leukemia = system: CCRF-CEM leukemia
SF-268 CNS = system: SF-268 CNS
NCI-H226 lung = system: NCI-H226 lung
SK-MEL-5 melanoma = system: SK-MEL-5 melanoma
SR leukemia = system: SR leukemia
SF-539 CNS = system: SF-539 CNS
K-562 leukemia = system: K-562 leukemia
HCT-116 colon = system: HCT-116 colon
MCF7 breast = system: MCF7 breast
MDA-MB-435 = system: MDA-MB-435
HOP-62 NSCLC = system: HOP-62 NSCLC
M14 melanoma = system: M14 melanoma
RPMI-8226 leukemia = system: RPMI-8226 leukemia
IGROV1 ovarian = system: IGROV1 ovarian
HT29 colon = system: HT29 colon
LOX IMVI melanoma = system: LOX IMVI melanoma
ACHN renal = system: ACHN renal

Cc1ccc(N2CCN(C3=C(Cl)C(=O)c4ncccc4C3=O)CC2)cc1
GI50 (HOP-92 NSCLC): 1.63 µM | TGI (HOP-92 NSCLC): 3.17 µM | GI50 (HL-60(TB) leukemia): 1.35 µM | TGI (HL-60(TB) leukemia): 3.87 µM | GI50 (HCC-2998 colon): 1.77 µM | TGI (HCC-2998 colon): 3.38 µM | GI50 (A498 renal): 15 µM | TGI (A498 renal): 28.4 µM | GI50 (DU-145 prostate): 6.05 µM | TGI (DU-145 prostate): 18.3 µM | GI50 (CAKI-1 renal): 1.68 µM | TGI (CAKI-1 renal): 3.09 µM | GI50 (UACC-257 melanoma): 1.75 µM | TGI (UACC-257 melanoma): 3.3 µM | GI50 (OVCAR-5 ovarian): 3.36 µM | TGI (OVCAR-5 ovarian): 11.4 µM | GI50 (KM12 colon): 17.5 µM | TGI (KM12 colon): 32 µM | GI50 (U251 CNS): 1.79 µM | TGI (U251 CNS): 3.42 µM | GI50 (COLO 205 colon): 1.84 µM | TGI (COLO 205 colon): 3.33 µM | GI50 (A549 NSCLC): 15 µM | TGI (A549 NSCLC): 33.3 µM | GI50 (NCI-H460 lung): 4.49 µM | TGI (NCI-H460 lung): 22.6 µM | GI50 (MALME-3M melanoma): 1.77 µM | TGI (MALME-3M melanoma): 3.34 µM | GI50 (OVCAR-8 ovarian): 1.6 µM | TGI (OVCAR-8 ovarian): 2.99 µM | GI50 (TK-10 renal): 7.15 µM | TGI (TK-10 renal): 18.1 µM | GI50 (SNB-75 CNS): 12.8 µM | TGI (SNB-75 CNS): 33.3 µM | GI50 (NCI-H522 lung): 1.76 µM | TGI (NCI-H522 lung): 3.53 µM | GI50 (BT-549 breast): 5.51 µM | TGI (BT-549 breast): 17.3 µM | GI50 (T-47D breast): 1.61 µM | TGI (T-47D breast): 4.04 µM | GI50 (SK-MEL-28 melanoma): 2.35 µM | TGI (SK-MEL-28 melanoma): 5.25 µM | GI50 (UACC-62 melanoma): 1.84 µM | TGI (UACC-62 melanoma): 3.6 µM | GI50 (SW-620 colon): 1.47 µM | TGI (SW-620 colon): 3.08 µM | GI50 (SK-MEL-2 melanoma): 2.11 µM | TGI (SK-MEL-2 melanoma): 4.48 µM | GI50 (SNB-19 CNS): 13.4 µM | TGI (SNB-19 CNS): 26.4 µM | GI50 (HCT-15 colon): 1.54 µM | TGI (HCT-15 colon): 3.28 µM | GI50 (RXF 393 renal): 1.79 µM | TGI (RXF 393 renal): 3.23 µM | GI50 (OVCAR-4 ovarian): 1.68 µM | TGI (OVCAR-4 ovarian): 3.29 µM | GI50 (786-0 renal): 3.35 µM | TGI (786-0 renal): 10.2 µM | GI50 (SK-OV-3 ovarian): 12.8 µM | TGI (SK-OV-3 ovarian): 25.8 µM | GI50 (MDA-MB-231 breast): 1.59 µM | TGI (MDA-MB-231 breast): 3.09 µM | GI50 (SF-295 CNS): 2.12 µM | TGI (SF-295 CNS): 4.86 µM | GI50 (HS 578T breast): 3.64 µM | TGI (HS 578T breast): 34.5 µM | GI50 (UO-31 renal): 1.53 µM | TGI (UO-31 renal): 3.11 µM | GI50 (MOLT-4 leukemia): 2.09 µM | TGI (MOLT-4 leukemia): 5.59 µM | GI50 (EKVX NSCLC): 1.73 µM | TGI (EKVX NSCLC): 3.14 µM | GI50 (PC-3 prostate): 2.85 µM | TGI (PC-3 prostate): 11.9 µM | GI50 (CCRF-CEM leukemia): 2.21 µM | TGI (CCRF-CEM leukemia): 7.09 µM | GI50 (SF-268 CNS): 5.91 µM | TGI (SF-268 CNS): 22.2 µM | GI50 (NCI-H226 lung): 10.1 µM | TGI (NCI-H226 lung): 26.5 µM | GI50 (SK-MEL-5 melanoma): 1.86 µM | TGI (SK-MEL-5 melanoma): 3.77 µM | GI50 (SR leukemia): 0.504 µM | TGI (SR leukemia): 4.8 µM | GI50 (SF-539 CNS): 1.85 µM | TGI (SF-539 CNS): 3.5 µM | GI50 (K-562 leukemia): 1.35 µM | TGI (K-562 leukemia): 8.53 µM | GI50 (HCT-116 colon): 1.62 µM | TGI (HCT-116 colon): 2.97 µM | GI50 (MCF7 breast): 1.22 µM | TGI (MCF7 breast): 3.23 µM | GI50 (MDA-MB-435): 1.91 µM | TGI (MDA-MB-435): 3.51 µM | GI50 (HOP-62 NSCLC): 15.4 µM | TGI (HOP-62 NSCLC): 29.4 µM | GI50 (M14 melanoma): 1.84 µM | TGI (M14 melanoma): 3.69 µM | GI50 (RPMI-8226 leukemia): 2.14 µM | TGI (RPMI-8226 leukemia): 5.79 µM | GI50 (IGROV1 ovarian): 1.74 µM | TGI (IGROV1 ovarian): 3.21 µM | GI50 (HT29 colon): 5.05 µM | TGI (HT29 colon): 19.3 µM | GI50 (LOX IMVI melanoma): 1.52 µM | TGI (LOX IMVI melanoma): 2.91 µM | GI50 (ACHN renal): 1.61 µM | TGI (ACHN renal): 2.96 µM
